Measured values as given in PMC11768104, “Identification of Two Flavonoids as New and Safe Inhibitors of Kynurenine Aminotransferase II via Computational and In Vitro Study” (Pharmaceuticals, 2025).
Read-outs that look alike come from different tables or passages of the source.

What was measured:
[1] = molecular target: T1, recombinant human KAT-II (kynurenine aminotransferase II) (Homo sapiens, UniProt Q8N5Z0); test: Lineweaver-Burk analysis, same fluorescent assay; type: biochemical
T1 construct: gene AADAT; recombinant, purchased from R&D Systems (Bio-Techne)
T1 sequence (Q8N5Z0 30-425): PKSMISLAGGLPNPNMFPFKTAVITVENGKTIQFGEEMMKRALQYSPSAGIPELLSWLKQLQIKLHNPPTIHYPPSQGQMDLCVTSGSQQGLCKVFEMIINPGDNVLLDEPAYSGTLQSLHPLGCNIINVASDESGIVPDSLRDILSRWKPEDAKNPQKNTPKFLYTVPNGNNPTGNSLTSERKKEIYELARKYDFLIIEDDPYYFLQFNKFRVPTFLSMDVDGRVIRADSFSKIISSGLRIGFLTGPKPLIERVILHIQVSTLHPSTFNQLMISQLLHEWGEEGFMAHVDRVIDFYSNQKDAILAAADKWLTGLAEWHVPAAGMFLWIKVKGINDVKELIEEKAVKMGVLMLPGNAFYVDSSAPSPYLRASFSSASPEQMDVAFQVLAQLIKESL
Experimental: Lineweaver-Burk analysis, same fluorescent assay on recombinant human KAT-II (kynurenine aminotransferase II) | competitive inhibition constant (Ki) for herbacetin and (-)-Epicatechin was calculated

[2] = molecular target: T1, recombinant human KAT-II (kynurenine aminotransferase II); test: microplate fluorescent kynurenine aminotransferase assay coupled to glutamate dehydrogenase; type: biochemical

Q: Which results are given for `Oc1cc(O)c2c(c1)O[C@H](c1ccc(O)c(O)c1)[C@H](O)C2` [(-)-Epicatechin]?
A: Ki [1]: 9.23 ± 0.39 µM; IC50 [2]: 8.76 ± 0.76 µM

Q: How did the IC50 ([2]; 1 mM L-KYN, 50 µM α-ketoglutaric acid, 5 µM PLP, pH 7.5, 30 min pre-incubation at room temperature, irreversible (binds PLP), covalent, non-competitive, error printed as 1.83) turn out when `N[C@H]1Cc2ccccc2N(O)C1=O` [PF-04859989, reference compound] was run?
A: Its IC50 is 0.0279 ± 0.00181 µM.

Q: `O=c1c(O)c(-c2ccc(O)cc2)oc2c(O)c(O)cc(O)c12` [herbacetin] was tested. Which Ki [1] did it give?
A: Its Ki is 7.64 ± 0.46 µM.

Q: And the IC50 [2]?
A: The IC50 was 5.98 ± 0.18 µM.
